From patent publication US20250206732A1, “COMPOUNDS AND METHODS FOR THE TARGETED DEGRADATION OF KRAS” (Arvinas Operations, Inc., priority 2022, published 2025)

Target: T1, AsPC-1 HiBiT-KRASG12D (Homo sapiens, UniProt P01116, G12D)
T1 construct: insert the HiBiT tag onto the N-terminus of one or more of the endogenous KRAS alleles; endogenous in cells; host or cells: AsPC-1 (ATCC CRL-1682), CRISPR-Cas9 knock-in clone, one tagged allele
Test: HiBiT degradation assay (G12D), AsPC-1 HiBiT-KRASG12D cells
Format: cell-based
Settings: 24 hours treatment; for Dmax: ASPC1, AsPC-1 HiBiT-KRASG12D cells, maximum degradation observed; for DC50: AsPC-1 HiBiT-KRASG12D cells, HiBiT luminescence
Method in brief: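 Steps: treat HiBiT-KRASG12D AsPC-1 cells with compound for 24 hours; add alamar blue to 1× and incubate 4 hours to assess viability; wash with PBS; add HiBiT lytic detection reagent, incubate 45 minutes at room temperature; read luminescence. Viability fluorescence is normalized to DMSO wells.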

T1 sequence (P01116 1-188 isoform P01116-2 G12D): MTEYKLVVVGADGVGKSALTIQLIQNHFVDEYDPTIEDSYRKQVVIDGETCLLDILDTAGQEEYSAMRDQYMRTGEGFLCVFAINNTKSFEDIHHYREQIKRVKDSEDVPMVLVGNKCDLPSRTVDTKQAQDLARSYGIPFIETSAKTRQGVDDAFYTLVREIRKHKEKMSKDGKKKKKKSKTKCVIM

Row | SMILES | Dmax [%] | DC50 [nM]
1 | CCc1cccc2cccc(-c3ncc4c(N5CC6CCC(C5)N6)nc(OC[C@]56CCCN5[C@H](COC(=O)N5CC(Oc7cc([C@H](C(=O)N8C[C@H](O)C[C@H]8C(=O)N[C@@H](C)c8ccc(-c9scnc9C)cc8)C(C)C)on7)C5)CC6)nc4c3F)c12 [Compound 225] | 80 to 100 | < 600
2 | CCc1cccc2cc(O)cc(-c3ncc4c(N5CCCCCC5)nc(OC[C@]56CCCN5[C@H](COC(=O)N5CC(Oc7cc([C@@H](C(=O)N8C[C@H](O)C[C@H]8C(=O)N[C@@H](C)c8ccc(-c9scnc9C)cc8)C(C)C)on7)C5)CC6)nc4c3F)c12 [Compound 305] | 20 to 60 | 600 to 1000
3 | CCc1cccc2cc(O)cc(-c3ncc4c(N5CC6CCC(C5)N6)nc(OCCN5CCC(F)(CN6CCN(c7cc([C@H](C(=O)N8C[C@H](O)C[C@H]8C(=O)N[C@@H](C)c8ccc(-c9scnc9C)cc8)C(C)C)on7)C[C@H]6C)CC5)nc4c3F)c12 [Compound 200, (2S,4R)-1-[(2R)-2-{3-[(3R)-4-[(1-{2-[(4-{3,8-diazabicyclo[3.2.1]octan-3-yl}-7-(8-ethyl-3-hydroxynaphthalen-1-yl)-8-fluoropyrido[4,3-d]pyrimidin-2-yl)oxy]ethyl}-4-fluoropiperidin-4-yl)methyl]-3-methylpiperazin-1-yl]-1,2-oxazol-5-yl}-3-methylbutanoyl]-4-hydroxy-N-[(1S)-1-[4-(4-methyl-1,3-thiazol-5-yl)phenyl]ethyl]pyrrolidine-2-carboxamide] | 60 to 80 | < 600
4 | C#Cc1c(F)ccc2cccc(-c3ncc4c(N5CC6CCC(C5)N6)nc(OC[C@]56CCCN5[C@H](COc5cc([C@@H](C(=O)N7C[C@H](O)C[C@H]7C(=O)N[C@@H](C)c7ccc(-c8scnc8C)cc7)C(C)C)on5)CC6)nc4c3F)c12 [Compound 317, (2S,4R)-1-[(2R)-2-[3-[[(3S,8R)-8-[[4-(3,8-diazabicyclo[3.2.1]octan-3-yl)-7-(8-ethynyl-7-fluoro-1-naphthyl)-8-fluoro-pyrido[4,3-d]pyrimidin-2-yl]oxymethyl]-1,2,3,5,6,7-hexahydropyrrolizin-3-yl]methoxy]isoxazol-5-yl]-3-methyl-butanoyl]-4-hydroxy-N-[(1S)-1-[4-(4-methylthiazol-5-yl)phenyl]ethyl]pyrrolidine-2-carboxamide] | 80 to 100 | < 600
5 | C#Cc1c(F)ccc2cccc(-c3ncc4c(N5CC6CCC(C5)N6)nc(OC[C@@]56CCCN5[C@H](COc5cc([C@@H](C(=O)N7C[C@H](O)C[C@H]7C(=O)N[C@@H](C)c7ccc(-c8scnc8C)cc7)C(C)C)on5)CC6)nc4c3F)c12 [Compound 51, (2S,4R)-1-[(2S)-2-(3-{[(3S,7aS)-7a-{[(4-{3,8-diazabicyclo[3.2.1]octan-3-yl}-7-(8-ethynyl-7-fluoronaphthalen-1-yl)-8-fluoropyrido[4,3-d]pyrimidin-2-yl)oxy]methyl}-hexahydro-1H-pyrrolizin-3-yl]methoxy}-1,2-oxazol-5-yl)-3-methylbutanoyl]-4-hydroxy-N-[(1S)-1-[4-(4-methyl-1,3-thiazol-5-yl)phenyl]ethyl]pyrrolidine-2-carboxamide] |  | > 3000
6 | CCc1cccc2cc(O)cc(-c3ncc4c(N5CC6CCC(C5)N6)nc(OCCN5CCC(F)(CN6CCN(c7cc([C@H](C(=O)N8C[C@H](O)C[C@H]8C(=O)N[C@@H](C)c8ccc(-c9ccnn9C)cc8)C(C)C)on7)CC6)CC5)nc4c3F)c12 [Compound 199, (2S,4R)-1-[(2R)-2-(3-{4-[(1-{2-[(4-{3,8-diazabicyclo[3.2.1]octan-3-yl}-7-(8-ethyl-3-hydroxynaphthalen-1-yl)-8-fluoropyrido[4,3-d]pyrimidin-2-yl)oxy]ethyl}-4-fluoropiperidin-4-yl)methyl]piperazin-1-yl}-1,2-oxazol-5-yl)-3-methylbutanoyl]-4-hydroxy-N-[(1S)-1-[4-(1-methyl-1H-pyrazol-5-yl)phenyl]ethyl] pyrrolidine-2-carboxamide] | 80 to 100 | < 600
7 | Cc1ncsc1-c1ccc([C@H](C)NC(=O)[C@@H]2C[C@@H](O)CN2C(=O)[C@H](c2cc(OC3CN(C(=O)OC[C@@H]4CC[C@@H](COc5nc(N6CC7CCC(C6)N7)c6cnc(-c7cc(O)cc(Cl)c7C7CC7)c(F)c6n5)N4C)C3)no2)C(C)C)cc1 [Compound 287] | < 20 | 1000 to 3000
8 | Cc1ncsc1-c1ccc([C@H](C)NC(=O)[C@@H]2C[C@@H](O)CN2C(=O)[C@H](c2cc(OC[C@@H]3CC[C@]4(COc5nc(N6CC7CCC(C6)N7)c6cnc(-c7cccc8ccc(F)c(F)c78)c(F)c6n5)CCCN34)no2)C(C)C)cc1 [Compound 62, (2S,4R)-1-[(2S)-2-(3-{[(3S,7aS)-7a-{[(4-{3,8-diazabicyclo[3.2.1]octan-3-yl}-7-(7,8-difluoronaphthalen-1-yl)-8-fluoropyrido[4,3-d]pyrimidin-2-yl)oxy]methyl}-hexahydro-1H-pyrrolizin-3-yl]methoxy}-1,2-oxazol-5-yl)-3-methylbutanoyl]-4-hydroxy-N-[(1S)-1-[4-(4-methyl-1,3-thiazol-5-yl)phenyl]ethyl]pyrrolidine-2-carboxamide] |  | > 3000
9 | C#Cc1c(F)ccc2cc(O)cc(-c3ncc4c(N5CC6CCC(C5)N6)nc(OCCN5CCC6(CC5)CC(Oc5cc([C@@H](C(=O)N7C[C@H](O)C[C@H]7C(=O)N[C@@H](C)c7ccc(-c8scnc8C)cc7)C(C)C)on5)C6)nc4c3F)c12 [Compound 159, (2S,4R)-1-[(2S)-2-{3-[(7-{2-[(4-{3,8-diazabicyclo[3.2.1]octan-3-yl}-7-(8-ethynyl-7-fluoro-3-hydroxynaphthalen-1-yl)-8-fluoropyrido[4,3-d]pyrimidin-2-yl)oxy]ethyl}-7-azaspiro[3.5]nonan-2-yl)oxy]-1,2-oxazol-5-yl}-3-methylbutanoyl]-4-hydroxy-N-[(1S)-1-[4-(4-methyl-1,3-thiazol-5-yl)phenyl]ethyl]pyrrolidine-2-carboxamide] | 60 to 80 | < 600
10 | CCc1cccc2cc(O)cc(-c3ncc4c(N5CCCCCC5)nc(OC[C@]56CCCN5[C@H](COC(=O)N5CCN(c7cc([C@H](C(=O)N8C[C@H](O)C[C@H]8C(=O)N[C@@H](C)c8ccc(-c9scnc9C)cc8)C(C)C)on7)[C@H](C)C5)CC6)nc4c3F)c12 [Compound 227, [(3S,8R)-8-[[4-(azepan-1-yl)-7-(8-ethyl-3-hydroxy-1-naphthyl)-8-fluoro-pyrido[4,3-d]pyrimidin-2-yl]oxymethyl]-1,2,3,5,6,7-hexahydropyrrolizin-3-yl]methyl (3R)-4-[5-[(1R)-1-[(2S,4R)-4-hydroxy-2-[[(1S)-1-[4-(4-methylthiazol-5-yl)phenyl]ethyl]carbamoyl]pyrrolidine-1-carbonyl]-2-methyl-propyl]isoxazol-3-yl]-3-methyl-piperazine-1-carboxylate] | 80 to 100 | < 600
11 | CCc1cccc2cc(O)cc(-c3ncc4c(N5CC6CCC(C5)N6)nc(OC[C@@H]5CC[C@@H](COC(=O)N6CCN(c7cc([C@@H](C(=O)N8C[C@H](O)C[C@H]8C(=O)N[C@@H](C)c8ccc(-c9scnc9C)cc8)C(C)C)on7)CC6)N5C)nc4c3F)c12 [Compound 289, [(2S,5S)-5-[[4-(3,8-diazabicyclo[3.2.1]octan-3-yl)-7-(8-ethyl-3-hydroxy-1-naphthyl)-8-fluoro-pyrido[4,3-d]pyrimidin-2-yl]oxymethyl]-1-methyl-pyrrolidin-2-yl]methyl 4-[5-[(1S)-1-[(2S,4R)-4-hydroxy-2-[[(1S)-1-[4-(4-methylthiazol-5-yl)phenyl]ethyl]carbamoyl]pyrrolidine-1-carbonyl]-2-methyl-propyl]isoxazol-3-yl]piperazine-1-carboxylate] | 20 to 60 | 1000 to 3000
